According to publication PMC4503722, “Novel Phenotypic Outcomes Identified for a Public Collection of Approved Drugs from a Publicly Accessible Panel of Assays” (PLoS ONE, 2015):
Where two headings read alike, the source gives them in different places.

Key:
Test in all cases: cells
[1] = tested on: NCI-H716 cells; format: cell-based, Human
[2] = tested on: SW480; format: cell-based
[3] = tested on: HCT116; format: cell-based
[4] = tested on: INS-1E cells; format: cell-based, rat
[5] = tested on: HT-29; format: cell-based
[6] = tested on: nuclear β-catenin in C2C12 cells; format: cell-based
[7] = tested on: DLD-1; format: cell-based
[8] = tested on: endothelial tube formation in co-cultures of ECFCs and ADSCs treated with VEGF; format: cell-based, human
[9] = tested on: SNU-C1; format: cell-based
[10] = tested on: Colo320; format: cell-based
[11] = tested on: RKO; format: cell-based
[12] = tested on: HCT116 cells treated with a GSK3β inhibitor; format: cell-based
[13] = tested on: HeLa cells; format: cell-based; details: read-out: CellCycle G2/M
[14] = Homo sapiens, SW480, read-out: Basal_Viability ATP SW480
[15] = Homo sapiens, DLD-1, read-out: Basal_Viability ATP DLD-1
[16] = Homo sapiens, SNU-C1, read-out: Basal_Viability ATP SNU-C1
[17] = read-out: Basal_Viability ATP SW480
[18] = read-out: Basal_Viability ATP HCT116
[19] = read-out: Basal_Viability ATP HT-29
[20] = read-out: Basal_Viability ATP DLD-1
[21] = read-out: Basal_Viability ATP SNU-C1
[22] = read-out: Basal_Viability ATP Colo 320
[23] = read-out: Basal_Viability ATP RKO
[24] = read-out: GSK3b inh pretreated_Viability ATP HCT116

For COc1cccc2c1C(=O)c1c(O)c3c(c(O)c1C2=O)C[C@@](O)(C(=O)CO)C[C@@H]3O[C@H]1C[C@H](N)[C@H](O[C@@H]2CCCCO2)[C@H](C)O1 [pirarubicin], the EC50 ([1]; Homo sapiens, NCI-H716, read-out: GLP 1 Secretion) was greater than 10000 nM, the IC50 [2, 14] was 7820 nM and the IC50 ([3]; Homo sapiens, HCT-116, basal, HCT116, read-out: Basal_Viability ATP HCT116) was 911 nM. The EC50 ([4]; Rattus norvegicus, INS-1E, read-out: Insulin Secretion) was greater than 10000 nM, the IC50 ([5]; Homo sapiens; basal; HT-29; read-out: Basal_Viability ATP HT-29) was greater than 20000 nM and the EC50 ([6]; Mus musculus, C2C12, read-out: Wnt Pathway) was 3950 nM. For the same molecule, the IC50 [7, 15] was 8950 nM, the IC50 ([8]; Homo sapiens; read-out: Anti-Angiogenesis) was 6.3 nM and the IC50 [9, 16] was 9260 nM. The IC50 ([10]; Homo sapiens; basal; Colo 320; read-out: Basal_Viability ATP Colo 320) was 2010 nM, the IC50 ([11]; Homo sapiens; basal; RKO; read-out: Basal_Viability ATP RKO) was 1010 nM and the IC50 ([12]; Homo sapiens, HCT-116, HCT116 pretreated with GSK3b inhibitor, read-out: GSK3b inh pretreated_Viability ATP HCT116) was 1280 nM. For the same molecule, the EC50 ([13]; Homo sapiens, HeLa, S2 Table, HeLa, 20 = no response at highest concentration) was 80.6 nM.
O=C(NOCC1CC1)c1ccc(F)c(F)c1Nc1ccc(I)cc1Cl [PD-184352, reference compound] gave an EC50 ([1]; Homo sapiens, NCI-H716, read-out: GLP1 sec. EC50) greater than 10000 nM, an IC50 ([2]; Homo sapiens, SW480, 72 h, read-out: SW480 viab. IC50) of 5 nM and an IC50 [2, 14] of 4.95 nM. The IC50 ([3]; Homo sapiens, HCT-116, 72 h, read-out: HCT-116 viab. IC50) was 2 nM, the IC50 ([3]; Homo sapiens, HCT-116, read-out: Basal_Viability ATP HCT116) was 1.79 nM and the EC50 ([4]; Rattus norvegicus, INS-1E, read-out: Ins. sec. EC50) was greater than 10000 nM. The IC50 ([5]; Homo sapiens, HT-29, 72 h, read-out: HT-29 viab. IC50) was 26 nM, the IC50 ([5]; Homo sapiens, HT-29, read-out: Basal_Viability ATP HT-29) was 26.3 nM and the EC50 ([6]; Mus musculus, C2C12, read-out: Wnt pot. EC50) was greater than 10000 nM. The IC50 ([7]; Homo sapiens, DLD-1, 72 h, read-out: DLD-1 viab. IC50) was 2200 nM, the IC50 [7, 15] was 2160 nM and the IC50 ([8]; Homo sapiens, read-out: Anti-Angio IC50) was 370 nM. It also gave an IC50 ([8]; Homo sapiens, read-out: Anti-Angiogenesis) of 368 nM, an IC50 ([9]; Homo sapiens, SNU-C1, 72 h, read-out: SNU-C1 viab. IC50) of 17 nM and an IC50 [9, 16] of 17.1 nM. It also gave an IC50 ([10]; Homo sapiens, COLO 320, 72 h, read-out: Colo320 viab. IC50) of 850 nM, an IC50 ([10]; Homo sapiens, COLO 320, read-out: Basal_Viability ATP Colo 320) of 848 nM and an IC50 ([11]; Homo sapiens, RKO, 72 h, read-out: RKO viab. IC50) of 3 nM. For the same molecule, the IC50 ([11]; Homo sapiens, RKO, read-out: Basal_Viability ATP RKO) was 3.19 nM, the IC50 ([12]; Homo sapiens, HCT-116, 72 h, read-out: HCT-116 (GSK3β) viab. IC50) was 970 nM and the IC50 ([12]; Homo sapiens, HCT-116, read-out: GSK3b inh pretreated_Viability ATP HCT116) was 969 nM. The EC50 ([13]; Homo sapiens, HeLa) was greater than 10000 nM.
CCN1C(=CC=Cc2sc3ccccc3[n+]2CC)Sc2ccccc21 [3,3'-diethylthiacarbocyanine iodide] gave an EC50 ([1]; read-out: GLP 1 Secretion) greater than 10000 nM, an IC50 [2, 17] of 172 nM and an IC50 [3, 18] of 9.57 nM. It also gave an EC50 ([4]; read-out: Insulin Secretion) greater than 10000 nM, an IC50 [5, 19] of 8.38 nM and an EC50 ([6]; read-out: Wnt Pathway) greater than 10000 nM. For the same molecule, the IC50 [7, 20] was 14.8 nM, the IC50 ([8]; read-out: Anti-Angiogenesis) was greater than 10000 nM and the IC50 [9, 21] was 17.2 nM. For the same molecule, the IC50 [10, 22] was 562 nM, the IC50 [11, 23] was 8.98 nM and the IC50 [12, 24] was 8.75 nM. It also gave an EC50 [13] greater than 10000 nM.
For CC(=O)O[C@@]12CO[C@@H]1C[C@H](O)[C@@]1(C)C(=O)[C@H](O)C3=C(C)[C@@H](OC(=O)[C@H](O)[C@@H](NC(=O)OC(C)(C)C)c4ccccc4)C[C@@](O)([C@@H](OC(=O)c4ccccc4)[C@H]21)C3(C)C [docetaxel], the EC50 ([1]; Homo sapiens, IC50 / EC50, NCI-H716, read-out: GLP 1 Secretion) was greater than 10000 nM, the IC50 ([2]; Homo sapiens, SW480, basal, read-out: Basal_Viability ATP SW480) was 1 nM and the IC50 ([3]; Homo sapiens, HCT-116, basal, read-out: Basal_Viability ATP HCT116) was 1 nM. For the same molecule, the EC50 ([4]; Rattus norvegicus, IC50 / EC50, INS-1E, read-out: Insulin Secretion) was greater than 10000 nM, the IC50 ([5]; Homo sapiens, HT-29; read-out: Basal_Viability ATP HT-29) was 1 nM and the EC50 ([6]; Mus musculus, C2C12, IC50 / EC50, C2C12 beta-catenin translocation, read-out: Wnt Pathway) was 65.2 nM. The IC50 ([7]; Homo sapiens, DLD-1, basal, read-out: Basal_Viability ATP DLD-1) was 8200 nM, the IC50 ([8]; Homo sapiens, IC50 / EC50; endothelial tube area, ADSC/ECFC co-culture; read-out: Anti-Angiogenesis) was 1 nM and the IC50 ([9]; Homo sapiens, SNU-C1, basal, read-out: Basal_Viability ATP SNU-C1) was greater than 20000 nM. It also gave an IC50 ([10]; Homo sapiens, COLO 320; read-out: Basal_Viability ATP Colo 320) of 1 nM, an IC50 ([11]; Homo sapiens, RKO; read-out: Basal_Viability ATP RKO) of 1 nM and an IC50 ([12]; Homo sapiens, HCT-116, GSK3b inhibitor pretreated, read-out: GSK3b inh pretreated_Viability ATP HCT116) of 1 nM. For the same molecule, the EC50 ([13]; Homo sapiens, HeLa, IC50 / EC50, HeLa) was 3.35 nM.
O=C([O-])CN(CCN(CC(=O)[O-])CC(=O)O)CCN(CC(=O)[O-])CC(=O)O.[Gd+3] [Gadopentetic acid] showed an EC50 ([1]; read-out: GLP 1 Secretion) greater than 10000 nM, an IC50 [2, 17] of 3140 nM and an IC50 [3, 18] greater than 20000 nM. It also gave an EC50 ([4]; read-out: Insulin Secretion) greater than 10000 nM, an IC50 [5, 19] greater than 20000 nM and an EC50 ([6]; read-out: Wnt Pathway) greater than 10000 nM. It also gave an IC50 [7, 20] greater than 20000 nM, an IC50 ([8]; read-out: Anti-Angiogenesis) greater than 10000 nM and an IC50 [9, 21] greater than 20000 nM. The IC50 [10, 22] was greater than 20000 nM, the IC50 [11, 23] was 2960 nM and the IC50 [12, 24] was 896 nM. The EC50 [13] was greater than 10000 nM.
